# Source: patent US9693556B2, “Herbicidal pyridazinone derivatives” (SYNGENTA LIMITED, priority 2011, dated 2017)
# Experiments:
# Format in all cases: in vivo
# [1] = tested on: Alopecurus myosuroides (ALOMY); test: Post-emergence herbicidal glasshouse test on Alopecurus myosuroides; conditions: post-emergence; 1000 g/h; evaluated after 13 days
# In short: (§1)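 Herbicidal damage was rated 13 days after treatment on a five-point scale, where 5 denotes 80-100% and 1 denotes 0-19% damage. Spraying at 1000 g/h followed sowing by one day (pre-emergence) or eight days (post-emergence).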
# [2] = tested on: Setaria faberi (SETFA); test: Post-emergence herbicidal glasshouse test on Setaria faberi; conditions: post-emergence; 1000 g/h; evaluated after 13 days
# In short: as §1
# [3] = tested on: Ipomoea hederacea (IPOHE); test: Pre-emergence herbicidal glasshouse test on Ipomoea hederacea; conditions: pre-emergence; 1000 g/h; evaluated after 13 days
# In short: as §1
# [4] = tested on: Ipomoea hederacea (IPOHE); test: Post-emergence herbicidal glasshouse test on Ipomoea hederacea; conditions: post-emergence; 1000 g/h; evaluated after 13 days
# In short: as §1
# [5] = tested on: Solanum nigrum (SOLNI); test: Post-emergence herbicidal glasshouse test on Solanum nigrum; conditions: post-emergence; 1000 g/h; evaluated after 13 days
# In short: as §1
# [6] = tested on: Amaranthus retoflexus (AMARE); test: Post-emergence herbicidal glasshouse test on Amaranthus retoflexus; conditions: post-emergence; 1000 g/h; evaluated after 13 days
# In short: as §1
# [7] = tested on: Setaria faberi (SETFA); test: Pre-emergence herbicidal glasshouse test on Setaria faberi; conditions: pre-emergence; 1000 g/h; evaluated after 13 days
# In short: as §1
# [8] = tested on: Alopecurus myosuroides (ALOMY); test: Pre-emergence herbicidal glasshouse test on Alopecurus myosuroides; conditions: pre-emergence; 1000 g/h; evaluated after 13 days
# In short: as §1
# [9] = tested on: Solanum nigrum (SOLNI); test: Pre-emergence herbicidal glasshouse test on Solanum nigrum; conditions: pre-emergence; 1000 g/h; evaluated after 13 days
# In short: as §1
# [10] = tested on: Amaranthus retoflexus (AMARE); test: Pre-emergence herbicidal glasshouse test on Amaranthus retoflexus; conditions: pre-emergence; 1000 g/h; evaluated after 13 days
# In short: as §1
# [11] = tested on: Echinochloa crus-galli (ECHCG); test: Post-emergence herbicidal glasshouse test on Echinochloa crus-galli; conditions: post-emergence; 1000 g/h; evaluated after 13 days
# In short: as §1
# [12] = tested on: Echinochloa crus-galli (ECHCG); test: Pre-emergence herbicidal glasshouse test on Echinochloa crus-galli; conditions: pre-emergence; 1000 g/h; evaluated after 13 days
# In short: as §1
Structure (SMILES),POST Application ALOMY herbicidal damage (five point scale) [1],POST Application SETFA herbicidal damage (five point scale) [2],PRE Application IPOHE herbicidal damage (five point scale) [3],POST Application IPOHE herbicidal damage (five point scale) [4],POST Application SOLNI herbicidal damage (five point scale) [5],POST Application AMARE herbicidal damage (five point scale) [6],PRE Application SETFA herbicidal damage (five point scale) [7],PRE Application ALOMY herbicidal damage (five point scale) [8],PRE Application SOLNI herbicidal damage (five point scale) [9],PRE Application AMARE herbicidal damage (five point scale) [10],POST Application ECHCG herbicidal damage (five point scale) [11],PRE Application ECHCG herbicidal damage (five point scale) [12]
C=CCn1ncc(-c2ccccc2S(C)(=O)=O)c(O)c1=O [Compound 2.001],5 (5=80-100% damage),5 (5=80-100% damage),5 (5=80-100% damage),5 (5=80-100% damage),5 (5=80-100% damage),5 (5=80-100% damage),5 (5=80-100% damage),5 (5=80-100% damage),5 (5=80-100% damage),5 (5=80-100% damage),5 (5=80-100% damage),5 (5=80-100% damage)
CC[S+]([O-])c1ccccc1-c1cnn(COC)c(=O)c1O (stereo not drawn) [Compound 2.003],3 (3=40-59% damage),4 (4=60-79% damage),1 (1=0-19% damage),4 (4=60-79% damage),5 (5=80-100% damage),5 (5=80-100% damage),4 (4=60-79% damage),3 (3=40-59% damage),1 (1=0-19% damage),5 (5=80-100% damage),5 (5=80-100% damage),4 (4=60-79% damage)
CCS(=O)(=O)c1ccccc1-c1cnn(COC)c(=O)c1O [Compound 2.004],3 (3=40-59% damage),5 (5=80-100% damage),4 (4=60-79% damage),5 (5=80-100% damage),5 (5=80-100% damage),5 (5=80-100% damage),5 (5=80-100% damage),5 (5=80-100% damage),5 (5=80-100% damage),5 (5=80-100% damage),5 (5=80-100% damage),5 (5=80-100% damage)
COCn1ncc(-c2ccc(Cl)cc2S(C)(=O)=O)c(O)c1=O [Compound 2.005],5 (5=80-100% damage),5 (5=80-100% damage),5 (5=80-100% damage),5 (5=80-100% damage),5 (5=80-100% damage),5 (5=80-100% damage),5 (5=80-100% damage),5 (5=80-100% damage),5 (5=80-100% damage),5 (5=80-100% damage),5 (5=80-100% damage),5 (5=80-100% damage)
COCn1ncc(-c2ccc(F)cc2S(C)(=O)=O)c(O)c1=O [Compound 2.006],5 (5=80-100% damage),5 (5=80-100% damage),5 (5=80-100% damage),5 (5=80-100% damage),5 (5=80-100% damage),5 (5=80-100% damage),5 (5=80-100% damage),5 (5=80-100% damage),5 (5=80-100% damage),5 (5=80-100% damage),5 (5=80-100% damage),5 (5=80-100% damage)
COc1ccc(Cn2ncc(-c3ccc(Cl)cc3S(C)(=O)=O)c(O)c2=O)cc1 [Compound 2.008],3 (3=40-59% damage),5 (5=80-100% damage),3 (3=40-59% damage),5 (5=80-100% damage),5 (5=80-100% damage),5 (5=80-100% damage),2 (2=20-39% damage),4 (4=60-79% damage),5 (5=80-100% damage),5 (5=80-100% damage),5 (5=80-100% damage),5 (5=80-100% damage)
C#Cn1ncc(-c2ccc(C(F)(F)F)cc2S(C)(=O)=O)c(O)c1=O [Compound 2.010],5 (5=80-100% damage),5 (5=80-100% damage),5 (5=80-100% damage),5 (5=80-100% damage),5 (5=80-100% damage),5 (5=80-100% damage),5 (5=80-100% damage),5 (5=80-100% damage),5 (5=80-100% damage),5 (5=80-100% damage),5 (5=80-100% damage),5 (5=80-100% damage)
C#Cn1ncc(-c2ccc(Cl)cc2S(C)(=O)=O)c(O)c1=O [Compound 2.011],5 (5=80-100% damage),5 (5=80-100% damage),5 (5=80-100% damage),5 (5=80-100% damage),5 (5=80-100% damage),5 (5=80-100% damage),5 (5=80-100% damage),5 (5=80-100% damage),5 (5=80-100% damage),5 (5=80-100% damage),5 (5=80-100% damage),5 (5=80-100% damage)
CS(=O)(=O)c1ccccc1-c1cnn(CC(F)F)c(=O)c1O [Compound 2.012],5 (5=80-100% damage),5 (5=80-100% damage),5 (5=80-100% damage),5 (5=80-100% damage),5 (5=80-100% damage),5 (5=80-100% damage),5 (5=80-100% damage),5 (5=80-100% damage),5 (5=80-100% damage),5 (5=80-100% damage),5 (5=80-100% damage),5 (5=80-100% damage)
